Experimental data published in patent US4289781A, “Anti-psychotic phthalimidine derivatives” (priority 1979, dated 1981).

Experiments:
[1] = test system: DA receptors in the brain; experiment: Block of apomorphine induced hyperactivity in rats (number of animals displaying hyperactivity); assay type: in vivo, Male Sprague-Dawley rats; settings: i.p., 60 min prior to apomorphine hydrochloride 1 mg/kg s.c.; dose reducing number of animals showing hyperactivity by 50% over 60 min
Source text: There are several techniques available to study DA receptor blockade in the brain. One method is based on the ability of anti-psychotics to block the behavioural effects induced by the DA agonist apomorphine. Apomorphine produces a characteristic syndrome in rats and other species consisting of repetitive movements (stereotypies) and hyperactivity which appear to be due to activation of postsynaptic DA receptors in the brain (J Pharm. Pharmacol. 19, 627, 1967; J Neurol. Transm. 40, 97-113, 1977). The stereotypies (chewing, licking, biting) appear mainly to reflect action on DA receptors of the neostriatal system (J Phychiat. Res., 11, 1, 1974) whereas the increased locomotion (hyperactivity) mainly appears to be due to activation of DA receptors in mesolimbic structures (nucleus olfactorium, nucleus accumbens), (J Pharm. Pharmacol. 25, 1003, 1973).
Male Sprague-Dawley rats weighing 225-275 g were used. […] The compounds were injected 60 min prior to apomorphine hydrochloride (1 mg/kg) which was injected subcutaneously into the neck.
Directly after injection, the animals were placed in the cages, one in each cage. Scoring of the stereotypies were performed by two separate methods. The first scoring system was a modified version of the system introduced by Costall and Naylor (1973). The strength of the stereotypy was scored on a 0-3 scale as follows:
In the second system the number of animals displaying hyperactivity caused by apomorphine were scored. Each group consisted of 6-8 animals. Saline controls were always run simultaneously. ED50 's are in the first scoring system (0-3 scale), the doses which reduce the strength of the stereotypies by 50% over the observation period of 60 min. ED50 's of the second scoring system are the doses which reduce the number of animals showing hyperactivity by 50% over the observation period of 60 min. The ED50 's were calculated from log dose-response curves by the method of least squares from 4-6 dose levels with 6-8 animals per dose level.

[2] = in vivo; cited from earlier work
[3] = experimental animals; cited from earlier work
[4] = test system: DA receptors in the brain; experiment: Block of apomorphine induced stereotypies in rats (0-3 scale scoring); assay type: in vivo, Male Sprague-Dawley rats; settings: i.p., 60 min prior to apomorphine hydrochloride 1 mg/kg s.c.; dose reducing strength of stereotypies by 50% over 60 min
Source text: There are several techniques available to study DA receptor blockade in the brain. One method is based on the ability of anti-psychotics to block the behavioural effects induced by the DA agonist apomorphine. Apomorphine produces a characteristic syndrome in rats and other species consisting of repetitive movements (stereotypies) and hyperactivity which appear to be due to activation of postsynaptic DA receptors in the brain (J Pharm. Pharmacol. 19, 627, 1967; J Neurol. Transm. 40, 97-113, 1977). The stereotypies (chewing, licking, biting) appear mainly to reflect action on DA receptors of the neostriatal system ([…]. Res., 11, 1, 1974) whereas the increased locomotion (hyperactivity) mainly appears to be due to activation of DA receptors in mesolimbic structures (nucleus olfactorium, nucleus accumbens), (J Pharm. Pharmacol. 25, 1003, 1973). Male Sprague-Dawley rats weighing 225-275 g were used. […] The compounds were injected 60 min prior to apomorphine hydrochloride (1 mg/kg) which was injected subcutaneously into the neck. […] Furthermore, apomorphine given s.c. also produced a very consistent hyperactivity. Directly after injection, the animals were placed in the cages, one in each cage. Scoring of the stereotypies were performed by two separate methods. The first scoring system was a modified version of the system introduced by Costall and Naylor (1973). The strength of the stereotypy was scored on a 0-3 scale as follows: |______________________________________ |Score Description of stereotyped behaviour. |______________________________________ |0 No change in behaviour compared to saline controls | No sedation. |1 Discontinuous sniffing. |2 Continuous sniffing. |3 Continuous sniffing. Chewing, biting and licking. |______________________________________ In the second system the number of animals displaying hyperactivity caused by apomorphine were scored. Each group consisted of 6-8 animals. Saline controls were always run simultaneously. […] The ED50 's were calculated from log dose-response curves by the method of least squares from 4-6 dose levels with 6-8 animals per dose level.

SMILES | Hyperactivity ED50 [1] | extrapyramidal side effects [2] | catalepsy [3] | Stereotypies ED50 [4]
CCN1CCCC1CNC(=O)c1cc(S(N)(=O)=O)ccc1OC (stereo not shown) [Sulpiride] | 45 µmol/kg | weak extrapyramidal side effects | weak catalepsy | –
O=C1c2ccc(Cl)cc2CN1C1CCN(Cc2ccc(Cl)cc2)CC1 [Example 15, 5-chloro-2-[4-N-(4-chlorobenzyl)piperidyl)-phthalimidine] | 3.5 µmol/kg | – | – | 14 µmol/kg
Cc1ccc(CN2CCC(N3Cc4cc(Cl)ccc4C3=O)CC2)cc1 [Example 16, 5-chloro-2-[4-N-(4-methylbenzyl)piperidyl]-phthalimidine] | 0.9 µmol/kg | – | – | 9 µmol/kg
COc1ccc(CN2CCC(N3Cc4cc(Cl)ccc4C3=O)CC2)cc1 [Example 7, 5-chloro-2-[4-N-(4-methoxybenzyl)piperidyl]-phthalimidine] | 2.2 µmol/kg | – | – | 9.5 µmol/kg
O=C1c2ccc(Br)cc2CN1C1CCN(Cc2ccc(Cl)cc2)CC1 [Example 11, 5-bromo-2-[4-N-(4-chlorobenzyl)-piperidyl]-phthalimidine] | 3.4 µmol/kg | – | – | 11 µmol/kg
O=C1c2ccc(F)cc2CN1C1CCN(Cc2ccccc2)CC1 [Example 1, 2-(4-N-benzylpiperidyl)-5-fluorophthalimidine] | 4.0 µmol/kg | – | – | 22.0 µmol/kg
O=C1c2ccc(Cl)cc2CN1C1CCN(Cc2ccccc2)CC1 [Example 3, 2-(4-N-benzylpiperidyl)-5-chloro phthalimidine] | 2.0 µmol/kg | – | – | 16.0 µmol/kg
Cc1ccc(CN2CCC(N3Cc4cc(Br)ccc4C3=O)CC2)cc1 [Example 14] | 1.7 µmol/kg | – | – | 6.5 µmol/kg
O=C1c2ccc(Br)cc2CN1C1CCN(Cc2ccccc2)CC1 [Example 2, 2-(4-N-benzylpiperidyl)-5-bromo phthalimidine] | 14 µmol/kg | – | – | 17.5 µmol/kg
